Values of other authors, collected in US12029822B2, “Drug delivery systems containing oxidized cholesterols” (Georgia Tech Research Corporation, priority 2019, dated 2024).

Tested on: AB1-HA tumor
Settings: CTX treatment at Day 9

With `O=P1(N(CCCl)CCCl)NCCCO1` (stereo not shown) [CTX, Cyclophosphamide] as the compound, how does the cure rate read?
Its cure rate is 75%.
